Measured values reported in patent publication US20150152441A1, “METHODS AND SYSTEMS FOR IMPROVING FERMENTATION EFFICIENCY” (LanzaTech New Zealand Limited, priority 2013, published 2015).

How the values were obtained:
[1] = test system: Clostridium autoethanogenum culture; test: Determination of effect of BTEX on fermentation (continuous CO gas fermentation; impact seen as rising pH and/or effect on CO and H2 uptake); assay type: cell-based; conditions: for Liquid tolerance level / Liquid impact level (ppm): level in fermentation broth, compound added individually; for Liquid tolerance level: addition lowered until no effect was observed; for Liquid impact level (ppm): impact = rising pH and/or effect on CO and H2 uptake
Description: Media was prepared according to the composition described in Tables 1-3 to a volume of 1.5 L and 1.5 ml of resazurin added. The solution was heated and agitated whilst degassed with N2. A Na2S drip was started at a rate of 0.5 ml/hr and temperature of the bioreactor set to 37° C. The pH was adjusted to 5.0 with NH4OH and chromium was added to adjust the ORP to −200 mV. The bioreactor was then supplied with RMG (43% CO, 20% CO2, 2.5% H2 and 33% N2) at a flow rate of 50 ml/min. The solution was inoculated with 150 ml of an actively growing Clostridium autoethanogenum culture. The fermentation was operated continuously for a period of 41 days at dilution rate 1.5. At day 26.8, Toluene was added to the gas phase. To achieve this, the inflow gas was sparged through a toluene solution, which allowed toluene to accumulate in the reactor. Toluene was allowed to accumulate for 17 hours. The fermentation was allowed to recover and the experiment was repeated on day 27.8.
The reactor was allowed to recover. On day 35 Benzene was added to the gas phase. To achieve this, the inflow gas was sparged through a benzene solution, which allowed benzene to accumulate in the reactor. […] Benzene was allowed to accumulate to higher concentrations.
The effect of the addition of xylene and ethylbenzene were also performed using the same techniques. Based on vapour pressure the compounds would evaporate at a certain rate into gaseous phase.
The effect of the introduction of the various BTEX compounds on bacterial culture performance was determined by measurement of the following: culture density, metabolite concentration (ethanol, acetate, etc), oxidation-reduction potential, pH, carbon monoxide and hydrogen consumption. The compound accumulation in the gas and culture liquid phase was determined by GC-MS measurements.
Liquid tolerance levels were determined by lowering the addition until no effect was observed.

[2] = cited from earlier work

c1ccccc1 [Benzene]
level in broth at which the compound began to effect the fermentation ([1]; FIG. 5-7): ≥ 50 ppm | accumulation resulting in an increase in pH and decrease in CO uptake ([1]; FIG. 6, 7): greater than 50 ppm | accumulation level with no observable effect on the fermentation ([1]; benzene added to gas phase on day 35): ≤ 40 ppm | Liquid tolerance level [1]: <40 ppm | Liquid impact level (ppm) [1]: >40 ppm | mm Hg vapor pressure (25° C.) [2]: 76 mm Hg

CCc1ccccc1 [Ethyl Benzene]
effect of addition to the reactor on the fermentation [1]: same effect was also seen | Liquid tolerance level [1]: <10 ppm | Liquid impact level (ppm) [1]: >20 ppm | mm Hg vapor pressure (25° C.) [2]: 7 mm Hg

Cc1ccccc1 [Toluene]
level in fermentation broth at which CO uptake decreased, with rising pH trend ([1]; after 3.5 hours exposure, FIG. 2-4): greater than 100 ppm | level in broth below which CO uptake and pH returned to pre-addition levels (fermentation recovers) ([1]; after toluene addition was stopped): below 100 ppm | effect on carbon monoxide utilisation of the microorganism ([1]; excess levels in fermentation solution): clear negative effect | Liquid tolerance level [1]: <25 ppm | Liquid impact level (ppm) [1]: >50 ppm | mm Hg vapor pressure (25° C.) [2]: 22 mm Hg

c1ccc2ccccc2c1 [naphthalene]
effect of addition to the reactor on the fermentation [1]: does not have a negative effect on the fermentation

Xylenes
effect of addition to the reactor on the fermentation [1]: same effect was also seen | Liquid tolerance level [1]: <10 ppm | Liquid impact level (ppm) [1]: >100 ppm
